Data as given in patent US20110003015A1, “STABILIZED COMPOSITION COMPRISING AT LEAST ONE ADRENERGIC COMPOUND” (ALK AG, priority 2009, published 2011).
Read-outs that look alike come from different tables or passages of the source.

Assays:
[1] = Description: The formulation solutions were prepared at a level of 1.0 mg/ml adrenaline (in the form of the tartrate), pH 3.4 containing, 0.6% sodium chloride, with various molar ratios (0.25-0.59) of sodium metabisulfite added. The metabisulfite/adrenaline molar ratios tested were 0.25, 0.34, 0.42, 0.5 and 0.59, which correspond to sulfite/adrenaline ratios of 0.5, 0.68, 0.84, 1.0 and 1.18, respectively. For the ease of reference to the general description and claims of this specification, the said values correspond to a molar ratio of adrenaline to sulfite of 2.0, 1.47, 1.19, 1.0 and 0.85, respectively.
Each sample solution was split into two lots. For each sample solution, one lot was placed at the accelerated test temperature of 60° C., protected from light and the other lot placed in a photo-stability cabinet at 25° C. which provided 13400 lux visible light, 1.50 W.h/m^2 UV. Samples were pulled from both conditions at 0, 7, 14 and 28 days At each pull point, the appearance of the test solution was assessed, the pH measured and the adrenaline content measured together with impurities.

Remark: listed apart in the source
[2] = at the metabisulfite levels contemplated; 60° C.
Description: A 1.1 mg/ml solution of adrenaline (6.004×10^−3 M), in the form of the tartrate, pH 3.4 and containing 0.6% sodium chloride was used. A range of metabisulfite antioxidant concentrations, with and without admixture of 0.25% di-sodium edetate as chelating agent were tested. The metabisulfite/adrenaline molar ratios tested were 0.1, 0.2, 0.5, 1.0 and 1.5, which correspond to sulfite/adrenaline ratios of 0.2, 0.4, 1.0, 2.0 and 3.0, respectively. For the ease of reference to the general description and claims of this specification, the said values correspond to a molar ratio of adrenaline to sulfite of 5.0, 2.5, 1.0, 0.5 and 0.33, respectively.
The accelerated test temperature was 60° C., protected from light, and samples were pulled at 0, 7, 14, 21 and 28 days. At each pull point, the appearance of the test solution was assessed, the pH measured and the solution assayed for adrenaline content. The appearance of degradation products was noted as area %.
[adr]^+ relates to samples containing 0.025% di-sodium edetate, whereas [adr] relates to samples containing no chelating agent.

molar ratio of metabisulfite to adrenaline in which stability of adrenaline is improved [1] | optimum sulfite:adrenaline ratio ([1]; Examples 2 and 3 summarised, 60° C., FIGS. 8 and 9) | first choice of metabisulfite content with respect to adrenaline ([1]; considering both thermal and photo stresses) | best metabisulfite:adrenaline ratio on the basis of total impurities ([1]; heat stress 60° C.) | best metabisulfite:adrenaline ratio on the basis of total impurities ([1]; photo-stress, 25° C., 13400 lux visible light, 1.50 W.h/m^2 UV) | pH for maximum stability of epinephrine in solution | SMILES | advantage of using a chelating agent for adrenaline solution stability [2]
0.25-0.59 | about 1.0 | half molar | 0.42 | 0.5 | about 3.4 | CNC[C@H](O)c1ccc(O)c(O)c1 [adrenaline, (R)-4-(1-hydroxy-2-(methylamino)ethyl)benzene-1,2-diol] | –
– | – | – | – | – | – | O=C([O-])CN(CCN(CC(=O)[O-])CC(=O)O)CC(=O)O.[Na+].[Na+] [di-sodium edetate] | no advantage
